Measured values reported in publication PMC6386909, “Dasatinib/HP-β-CD Inclusion Complex Based Aqueous Formulation as a Promising Tool for the Treatment of Paediatric Neuromuscular Disorders” (International Journal of Molecular Sciences, 2019).
Several values for one entry are separate records, joined by “and”; a condition that tells them apart may be missing. Equal values may be shown once.

What was measured:
C2C12 cells = test: Cytotoxicity / cell viability (CCK-8); format: cell-based, murine; conditions: C2C12 myoblasts, 0.1–100 μM, 5 h treatment
Protocol: C2C12 myocytes were cultured in DMEM that was supplemented with 10% fetal bovine serum, 1% penicillin, 1% streptomycin and 1% glutamine and were maintained at 37 °C in 5% CO2/95% air. Cell viability was evaluated by measuring the succinic dehydrogenases activity in the cell suspension using the cell counting Kit-8 (CCK-8) (Sigma Aldrich), which utilizes a highly water-soluble tetrazolium salt and whose detection sensitivity is higher than other tetrazolium salts.
Cells were seeded in 96-well cultures at a density of approximately 4.5 × 10^3 cells per well and then cultured for 16 h. Afterwards, the cells were treated for 5 h with free DAS (in DMSO <0.15% in order to ensure cellular vitality) or complexed with HP-β-CD, but at the same concentration calculated on the basis of the incorporation degree, both being dissolved in DMEM. Following exposure, 10 μL of CCK-8 were added into each well and then the plate was incubated for additional two hours. The absorbance at 450 nm was measured using a spectrophotometer (microplate reader Victor V31420–40; PerkinElmer, Wellesley, Massachusetts). […] The results are expressed as the percentage of the control and presented as the mean ± SD. Each data is from 24–48 replicates (wells) and 6–9 different culture dishes.

[1] = Pharmacokinetic analysis of DAS in quadriceps and liver after oral treatment; format: in vivo, C57Bl/6J mice; conditions: DAS/HP-β-CD inclusion complex 15 mg/kg in drinking water for 1 week, WT mice
Protocol: A total of 10 sedentary WT male mice C57Bl/6J (Charles River, Italy for Jackson Laboratories), homogeneous for age and body weight (BW) were divided into 2 groups as follows: 4 WT mice vehicle-treated (HP-β-CD 10%) and 6 WT mice treated with DAS/HP-β-CD inclusion complex at the dose of 15 mg/Kg. Drug and vehicle were administered in drinking water for 1 week.
In detail, analysis was performed in quadriceps (Quad) and livers of treated animals. Tissues were individually weighed into a "FastPrep" tube and PBS was added (3:1 ratio). Each tube was placed in the fast prep homogenizer on a predetermined 1min cycle to ensure complete homogenization. 40 µL of each homogenate was aliquoted to a fresh tube and 50 µL of MeOH plus 150 µL of Methanol-containing Internal standard (25 ng/mL Imipramine HCl) was added. Each sample was mixed on a Bioshake for 1 min and then transferred to the freezer at −20 °C for at least two hours prior centrifugation at 2500 × g for 20 min. The supernatants were then transferred to a 96-well plate for sampling by the LC-MS/MS. A Thermo TSQ Quantiva with Thermo Vanquish UHPLC system was used (Thermo Fisher Scientific Inc, Milan, Italy). […] Quantitative analysis was conducted by MRM at 232.06 to 401.11 m/z for DAS inclusion complex and at 86.10 to 193.04 m/z for the internal standard Imipramine. […]

[2] = set-up: method as in PMID 26604135; conditions: cited from earlier work
[3] = Dissolution studies at 37 °C (BIODIS USP III apparatus); format: physicochemical; conditions: HCl 0.05 M pH 1.2, 37 °C, after approximately 420 min
Protocol: Dissolution experiments were performed at 37 °C using a BIODIS USP III apparatus (Varian Inc., Cary North Carolina, CA, USA), equipped with a rod stirrer maintaining a rotational speed of 100 rpm during the test. Samples of DAS or DAS/HP-β-CD solid complex, equivalent to about 2 mg of DAS, were suspended in the dissolution medium (80 mL of 0.05 M phosphate buffer at pH 7.4 or HCl 0.05 M pH = 1.2). The volume of 80 mL was chosen taking into account the HPLC quantification limit for the determination of DAS.
At predetermined time intervals, 600 µL of suspension were collected and, in order to keep constant the initial volume, 600 μL of the same dissolution medium previously thermostated at the same temperature were added. Samples were subsequently filtered using a 0.22 µm membrane filter (Millipore® cellulose acetate), and the filtrates thus obtained were subjected to HPLC analysis after appropriate dilution. For quantitative analysis the calibration curve previously constructed was used and the dissolution profiles shown correspond to the average of three determinations.

[4] = Phase solubility study of DAS with HP-β-CD in water (Higuchi-Connors); format: physicochemical; conditions: 25 °C
Protocol: (§1) The phase solubility study was conducted in accordance with Higuchi and Connors. In detail, DAS was added in excess to an aqueous solution containing HP-β-CD in the appropriate concentration (0–10% w/v) until saturation and the suspensions thus obtained were placed in 4 mL vials with screw cap to avoid changes that are caused by evaporation. The obtained mixtures were vortexed for about 5 min and then placed in a thermostat bath at 25 °C for three days.
(§2) Subsequently, an aliquot of the aqueous phase of each mixture was transferred into a 5 mL glass syringe and filtered through a 0.22 μm cellulose acetate membrane filter (Millipore®, Milan, Italy).
(§3) The obtained filtrate was suitably diluted and subjected to subsequent HPLC analysis for the quantification of the drug. All of the determinations were conducted in triplicate.
The obtained data were used to determine the apparent stability 1:1 constant (K1:1) of the DAS/HP-β-CD inclusion complex, using the slope of the phase solubility diagrams straight line, as reported by Higuchi and Connors in the following equation:(1) K1:1=slope/S0(1−slope) where S0 represents DAS solubility in absence of cyclodextrin determined in the same way.

[5] = known values, no reference given; cited from earlier work
[6] = DAS solubility at 25 °C in different environments; format: physicochemical; conditions: pH 6, Water (ultrapure, pH about 6.0)
Protocol: as §1, §2, §3

Src-TK = system: Src-TK; set-up: method as in PMID 25658745; conditions: cited from earlier work
cancer cell growth = conditions: no reference given; cited from earlier work

quantity of drug dissolved [3]: approximately 81%
1:1 apparent formation (complexation) constant K1:1 ([4]; DAS with HP-β-CD, from linear portion (0–6% HP-β-CD) of the phase solubility diagram): 922.13 M⁻¹
solubility at 3 days ([4]; aqueous HP-β-CD solution, aqueous with cosolvent or surfactant or cyclodextrin, thermodynamic from solid, 6% w/v of HP-β-CD, read-out: DAS aqueous solubility in the presence of HP-β-CD): 29 µM and 14 µg/mL
solubility at 3 days ([6]; read-out: DAS Solubility): 1.33 µM
solubility at 3 days ([6]; read-out: DAS Solubility (mg/mL)): 0.000649 mg/mL
SMILES: Cc1nc(Nc2ncc(C(=O)Nc3c(C)cccc3Cl)s2)cc(N2CCN(CCO)CC2)n1 [DAS, N-(2-chloro-6-methylphenyl)-2-[[6-[4-(2-hydroxyethyl)piperazin-1-yl]-2-methylpyrimidin-4-yl]amino]-1,3-thiazole-5-carboxamide]
cytotoxic effect on cell viability (C2C12 cells): cytotoxic only at high concentrations
DAS levels in quadriceps and livers [1]: Appreciable drugs’ levels were found in quadriceps and livers
pKa [2]: 10.28
therapeutic plasma levels [5]: low µM values
inhibition of Src-TK, concentration range (Src-TK): nanomolar range
IC50 values known to inhibit cancer cell growth (cancer cell growth): nM range
